According to patent US9493833B1, “Methods for preventing induced synthesis of proteasomes in human cells” (THE REGENTS OF THE UNIVERSITY OF CALIFORNIA, priority 2009, dated 2016):
Where a SMILES comes first, the peptide text is derived from it. The star is where a group is joined. Cbz = O=C(OCc1ccccc1)*

Assays:
[1] = tested on: murine PSMB6 promoter; assay: PSMB6-Luc promoter-reporter luciferase assay in MEFs; type: cell-based, mouse; settings: WT MEFs, MG132 12 hrs
Method: (§1) Sequence alignment of the genomic region close to the transcription start site (indicated by +1) of the PSMB6 gene in mouse and human. The putative ARE sequences and the start codon are marked as shown (FIG. 6). WT and Nrf1^−/− MEFs were transfected with the PSMB6-Luc construct and 24 hrs post-transfection, the cells were treated with the indicated concentration of MG132 for 12 hrs after which luciferase assays were performed as described herein (FIG. 7). Error bars denote SD (n=3). […] LNCaP cells were transiently transfected with the indicated reporter constructs along with either a vector control or Flag-Nrf1 expression construct. Forty-eight hours (hrs) after transfection, the cells were further incubated with the indicated concentration of MG132 for 12 hrs after which luciferase assays were performed as described herein (FIG. 9). Error bars denote SD (n=3).
(§2) Cells were transiently transfected with the firefly (promoter reporters) and renilla luciferase (pRL-TK; Promega) constructs along with effector plasmid as required. After harvesting the cells, luciferase assays were performed using the Dual Luciferase reporter assay system (E1910; Promega) according to the instructions from the manufacturer. The firefly luciferase activity was normalized to renilla luciferase activity for all experiments.

[2] = tested on: anti-oxidant response elements (8×AREs); assay: 8×ARE-SV40-Luc luciferase reporter assay in LNCaP cells; type: cell-based, human; settings: for luciferase activity (8×ARE reporter) in combination with MG132: TSA or SAHA added with MG132, 16 hours
Method: TSA and SAHA were assayed using a luciferase reporter construct. The luciferase reporter was driven by a promoter harboring multimerized anti-oxidant response elements (8×AREs) and was transfected into LNCaP cells.
(§3) LNCaP cells were subjected to treatment with one of MG132 (1 μM), TSA (1 μM), SAHA (5 μM), MG132 (1 μM)+TSA (1 μM), or MG132 (1 μM)+SAHA (1 μM) for 10 hrs and the RNA from these cells was used for quantitative RT-PCR to assess the mRNA levels of representative PSM genes (FIG. 5A). The values were normalized to GAPDH and the DMSO-treated sample was set to 1. A representative experiment performed in duplicates is shown. MDA-MB-231 cells were treated with different agents at the same concentrations as above (except MG132 which was used at 5 μM) for 48 hrs after which the cells were used for cell-titer glo assay to assess cell viability. Data from an experiment performed in quadruplicates is shown (FIG. 5B). LNCaP cells transfected with 8×ARE-SV40-Luc construct alone (control) or co-transfected with Flag-Nrf1 were further treated with different agents as indicated (FIG. 10). pRL-TK renilla luciferase expression construct was used as a transfection control for normalization. Sixteen hours later, the cells were harvested and used for Luciferase assay.
as §2

[3] = tested on: PSM genes; assay: mRNA levels of representative PSM genes by quantitative RT-PCR in MEFs (WT, Nrf1−/−, Nrf2−/−; retroviral transduction); type: cell-based, mouse; settings: 10 hrs
Method: Specifically, MEFs of different genotypes (WT, Nrf1^−/−, and Nrf2^−/−) were treated for 10 hrs with MG132 as indicated (FIG. 2A), and the cell lysates were used for immunoblotting to detect protein levels of Nrf1 (with the antibody raised against the N-terminus) and Nrf2. β-actin protein levels were used as loading control. RNA from MEFs under the same treatment conditions as above was used for quantitative RT-PCR to assess the mRNA levels of representative PSM genes (FIGS. 2B-2C), The values were normalized to GAPDH and the DMSO treated WT sample was set to 1. Error bars denote SD (n=3).
Nrf1^−/− MEFs were transduced with retrovirus expressing one of Flag-Nrf1, Flag-Nrf1-HA or vector control and 72 hrs later treated with MG132 for 10 hrs as indicated. The cell lysates were used for immunoblotting to detect the levels of exogenous Nrf1 by using tag-specific antibodies (FIG. 3A). β-actin protein levels were used as loading control. RNA from Nrf1^−/− MEFs under the same viral transduction and treatment conditions as above was used for quantitative RT-PCR to assess the mRNA levels of representative PSM genes (FIG. 3B). The values were normalized to GAPDH and the vector-transduced DMSO-treated sample was set to 1. Error bars denote SD (n=3).
WT and Nrf1^−/− MEFs were transduced with retrovirus expressing sh-Nrf1 or vector control and 72 hrs later treated with MG132 for 10 hrs as indicated. […] RNA from MEFs under the same viral transduction and treatment conditions as above was used for quantitative RT-PCR to assess the mRNA levels of representative PSM genes (FIG. 4B). […]
(§4) RNA was isolated using the RNeasy kit (Qiagen). cDNA was prepared using the Superscript III first strand synthesis kit (Invitrogen) according to the manufacturer's recommendations. Quantitative PCR (qPCR) was performed using the SYBR GreenER supermix (Invitrogen).

[4] = tested on: PSMA4 ARE; assay: 3×PSMA4-ARE-Luc / 3×PSMA4-mutARE-Luc luciferase assay in LNCaP cells; type: cell-based, human; settings: for luciferase activity (3×PSMA4-mutARE-Luc, AREs mutated) / luciferase activity (3×PSMA4-ARE-Luc): LNCaP; for luciferase activity (3×PSMA4-ARE-Luc): versus DMSO-treated / vector control, MG132 12 hrs
Method: as §1, §2

[5] = molecular target: T1, proteasome (chymotryptic site) (Homo sapiens, UniProt P20618+P28074); assay: Proteasome activity recovery assay in HT29 cells after drug wash-out; type: cell-based
T1 construct: endogenous in cells; host or cells: HT29 human colon cancer cells, treated intact; activity measured in freeze-thaw lysate
Method: Cells were frozen at different time points as indicated and were used for proteasome activity assays as described herein. For each time point, the results are normalized to DMSO-treated control in the case of hatched lines and to CHX-treated control in the case of solid lines. Error bars denote SD (n=3). […] The results were normalized to DMSO-treated control for each cell type. Error bars denote S.E.M. (n=2). […] The next day, the cells were treated with indicated concentrations of YU101 and the pan-caspase inhibitor Z-VAD-FMK, and further incubated for 72 hrs. The cell viability was then assessed using the CellTiter-Glo method (FIG. 12A). The results were normalized to DMSO-treated control which was set to 100% in each case. Error bars denote S.E.M. (n=2). […] The cell lysates were used for immunoblotting to detect the levels of Nrf1 (with the antibody raised against N-terminus) and cleaved caspase-3. β-actin protein levels were used as loading control. […] The cells were then washed with PBS thrice and allowed to recover in fresh medium. At definite time points, the cells were freeze-thawed in TE buffer (20 mM Tris pH 8, 5 mM EDTA) and subsequently used for measuring proteasome activity as described previously (Demo et al., 2007).

[6] = tested on: PSM genes (PSMA7, PSMB4, PSMB7, PSMC1, PSMC4, PSMD1, PSMD12); assay: mRNA levels of representative PSM genes by quantitative RT-PCR in LNCaP and HT-29 cells treated with proteasome inhibitors or MLN4924; type: cell-based, human; settings: 10 hrs, normalized to GAPDH, DMSO set to 1
Method: The human prostate cancer LNCaP and colon cancer HT29 cell lines were incubated with different proteasome inhibitors (MG132, YU101, and bortezomib) or the Nedd8 pathway inhibitor MLN4924 (Soucy et al., 2009, Nature, 458, 732-736). Prostate cancer LNCaP and colon cancer HT-29 cells were treated with the indicated concentrations of proteasome inhibitors (MG132, YU101, and Bortezomib) or the Nedd8 pathway inhibitor (MLN4924) for 10 hrs, and mRNA levels of representative PSM genes were analyzed by quantitative RT-PCR (FIGS. 1A-1C). The values were normalized to GAPDH and for each cell line the DMSO treated sample was set to 1. Error bars denote SD (n=3). […] MLN4924 works by inhibiting the Nedd8-activating enzyme, the result of which is the accumulation of cullin-RING ligase (CRL) substrates (Soucy et al., 2009).
as §4

[7] = tested on: MDA-MB-231 cells; assay: Cell-titer glo cell viability, MG132 combined with TSA or SAHA; type: cell-based, human; settings: MDA-MB-231, MG132 5 μM combined with TSA or SAHA, 48 hrs
Method: as §3
Cells in 96-well plates were treated with different agents as required and cell viability was assessed using the Cell-Titer Glo kit (G7572; Promega) according to the protocol recommended by the manufacturer. By employing a luminescence read-out, this kit quantifies the level of ATP which is proportional to the number of viable cells.

[8] = tested on: PSM genes; assay: PSM gene mRNA by quantitative RT-PCR in LNCaP cells treated with MG132 and HDAC inhibitors; type: cell-based, human; settings: 10 hrs; for MG132-mediated upregulation of representative PSM genes: MG132 1 μM + TSA 1 μM or MG132 1 μM + SAHA 1 μM; for steady-state PSM gene expression: TSA 1 μM or SAHA 5 μM alone
Method: as §3, §4

[9] = after administration; cited from earlier work

Q: Which “luciferase activity (PSMB6 promoter-reporter)” value [1] does the source give for `CC(C)C[C@@H](C=O)NC(=O)[C@H](CC(C)C)NC(=O)[C@H](CC(C)C)NC(=O)OCc1ccccc1` [MG132] (Cbz-Leu-Leu-Leu-aldehyde) here?
A: dose dependent increase in luciferase activity

Q: And the “luciferase expression (8×ARE reporter)” value ([2]; MG132 alone versus untreated cells)?
A: luciferase expression was increased compared to non-test (untreated) cells

Q: And the “mRNA levels of PSM genes after MG132” value ([3]; Nrf1−/− MEFs)?
A: severely blunted in their ability to upregulate PSM genes

Q: What about the “mRNA levels of PSM genes after MG132” value ([3]; Nrf2−/− MEFs) of the same molecule?
A: induced mRNA levels of PSM genes

Q: And the “mRNA levels of PSM genes after MG132” value ([3]; WT MEFs)?
A: induced mRNA levels of PSM genes

Q: And the “luciferase activation (3×PSMA4-ARE-Luc) in cells overexpressing Flag-Nrf1” value ([4]; LNCaP with Flag-Nrf1, plus MG132)?
A: further enhanced

Q: What about the “luciferase activity (3×PSMA4-mutARE-Luc, AREs mutated)” value [4] of the same molecule?
A: neither MG132 nor overexpressed Flag-Nrf1 induced the synthetic promoter construct

Q: What about the “luciferase activity (3×PSMA4-ARE-Luc)” value [4] of the same molecule?
A: an increase in luciferase activity was observed when compared to DMSO-treated control

Q: What about the inhibition at 2 µM ([5]; HT-29, read-out: inhibition of the chymotryptic site) of the same molecule?
A: 80 to 90%

Q: What about the “mRNA levels of PSM genes” value [6] of the same molecule?
A: robustly induce mRNA levels of several PSM genes

Q: Which “apoptosis / cell viability in combination with MG132” value [7] does the source give for `O=C(CCCCCCC(=O)Nc1ccccc1)NO` [SAHA, suberoylanilide hydroxamic acid] here?
A: enhanced apoptosis (decreased viability)

Q: And the “luciferase activity (8×ARE reporter) in combination with MG132” value [2]?
A: basal levels of luciferase activity were observed

Q: What about the “MG132-mediated upregulation of representative PSM genes” value [8] of the same molecule?
A: reproducibly inhibited the MG132-mediated upregulation of representative PSM genes

Q: What about the “steady-state PSM gene expression” value [8] of the same molecule?
A: little effect on steady-state PSM gene expression

Q: Which “apoptosis / cell viability in combination with MG132” value [7] does the source give for `CC(/C=C/C(=O)NO)=C\[C@@H](C)C(=O)c1ccc(N(C)C)cc1` [TSA, trichostatin A] here?
A: enhanced apoptosis (decreased viability)

Q: What about the “luciferase activity (8×ARE reporter) in combination with MG132” value [2] of the same molecule?
A: basal levels of luciferase activity were observed

Q: And the “MG132-mediated upregulation of representative PSM genes” value [8]?
A: reproducibly inhibited the MG132-mediated upregulation of representative PSM genes

Q: What about the “steady-state PSM gene expression” value [8] of the same molecule?
A: little effect on steady-state PSM gene expression

Q: Which “clearance from the patients' blood” value [9] does the source give for `CC(C)C[C@H](NC(=O)[C@H](Cc1ccccc1)NC(=O)c1cnccn1)B(O)O` [bortezomib] here?
A: rapidly cleared from the patients' blood within the first hour

Q: And the inhibition at 0.04 µM ([5]; HT-29, HT29, 1 hr, MG132 2 μM, YU101 100 nM, Bortezomib 40 nM)?
A: 80 to 90%

Q: What about the “mRNA levels of PSM genes” value [6] of the same molecule?
A: robustly induce mRNA levels of several PSM genes

Q: With `CC(C)C[C@H](NC(=O)[C@H](CCc1ccccc1)NC(=O)CN1CCOCC1)C(=O)N[C@@H](Cc1ccccc1)C(=O)N[C@@H](CC(C)C)C(=O)[C@@]1(C)CO1` [carfilzomib] as the molecule, how does the “clearance from the patients' blood” value [9] read?
A: rapidly cleared from the patients' blood within the first hour

B1: Flag-Nrf1: human Nrf1 with N-terminal 3×FLAG tag, expressed from pMSCV-hyg retroviral vector (protein, UniProt Q14494 1-772, looked up)
Endoplasmic reticulum …: MLSLKKYLTEGLLQFTILLSLIGVRVDVDTYLTSQLPPLREIILGPSSAYTQTQFHNLRNTLDGYGIHPKSIDLDNYFTARRLLSQVRALDRFQVPTTEVNAWLVHRDPEGSVSGSQPNSGLALESSSGLQDVTGPDNGVRESETEQGFGEDLEDLGAVAPPVSGDLTKEDIDLIDILWRQDIDLGAGREVFDYSHRQKEQDVEKELRDGGEQDTWAGEGAEALARNLLVDGETGESFPAQVPSGEDQTALSLEECLRLLEATCPFGENAEFPADISSITEAVPSESEPPALQNNLLSPLLTGTESPFDLEQQWQDLMSIMEMQAMEVNTSASEILYSAPPGDPLSTNYSLAPNTPINQNVSLHQASLGGCSQDFLLFSPEVESLPVASSSTLLPLAPSNSTSLNSTFGSTNLTGLFFPPQLNGTANDTAGPELPDPLGGLLDEAMLDEISLMDLAIEEGFNPVQASQLEEEFDSDSGLSLDSSHSPSSLSSSEGSSSSSSSSSSSSSSASSSASSSFSEEGAVGYSSDSETLDLEEAEGAVGYQPEYSKFCRMSYQDPAQLSCLPYLEHVGHNHTYNMAPSALDSADLPPPSALKKGSKEKQADFLDKQMSRDEHRARAMKIPFTNDKIINLPVEEFNELLSKYQLSEAQLSLIRDIRRRGKNKMAAQNCRKRKLDTILNLERDVEDLQRDKARLLREKVEFLRSLRQMKQKVQSLYQEVFGRLRDENGRPYSPSQYALQYAGDGSVLLIPRTMADQQARRQERKPKDRRK
modifications: N-terminal 3xFLAG tag
notes: human Nrf1 with N-terminal 3×FLAG tag, expressed from pMSCV-hyg retroviral vector
Q: With B1 as the molecule, how does the “luciferase activity (3×PSMA4-mutARE-Luc, AREs mutated)” value [4] read?
A: neither MG132 nor overexpressed Flag-Nrf1 induced the synthetic promoter construct

Q: And the “luciferase activity (3×PSMA4-ARE-Luc)” value [4]?
A: activated this synthetic promoter construct
